The source of these data is patent US10206909B2, “3-(1H-pyrrolo[2,3-B]pyridin-2-yl)-1H-pyrazolo[4,3-B]pyridines and therapeutic uses thereof” (Samumed, LLC, priority 2015, dated 2019).

A value given as a limit tells only on which side of the number the result lay.

The EC50 is the concentration at which the effect is half-maximal. High values mean lower potency in that assay, low ones higher potency in that assay. What is called inhibition is the share of the control response that was lost under treatment.

Experiment [1] has as its system Wnt activity (Sp5-Luc reporter, SW480 colon carcinoma cells). Put plainly: Wnt activity screening assay: Sp5-Luc reporter gene assay in SW480 cells. It counts as cell-based. The note with it: Homo sapiens; for EC50: SW480 cells, overnight incubation; for inhibition at 10 µM: given where EC50 >10 μM, SW480, read-out: percent inhibition at 10 μM. The source says: The screening assay for Wnt activity is described as follows. Reporter cell lines can be generated by stably transducing cancer cell lines (e.g., colon cancer) or primary cells (e.g., IEC-6 intestinal cells) with a lentiviral construct that includes a Wnt-responsive promoter driving expression of the firefly luciferase gene.
SW480 colon carcinoma cells were transduced with a lentiviral vector expressing luciferase with a human Sp5 promoter consisting of a sequence of eight TCF/LEF binding sites. SW480 cells stably expressing the Sp5-Luc reporter gene and a hygromycin resistance gene were selected by treatment with 150 μg/mL of hygromycin for 7 days. These stably transduced SW480 cells were expanded in cell culture and used for all further screening activities. Each compound was dissolved in DMSO as a 10 mM stock and used to prepare compound source plates. Serial dilution (1:3, 10-point dose-response curves starting from 10 μM) and compound transfer was performed using the ECHO 550 (Labcyte, Sunnyvale, Calif.) into 384-well white solid bottom assay plates (Greiner Bio-One) with appropriate DMSO backfill for a final DMSO concentration of 0.1%. For Sp5-Luc reporter gene assays, the cells were plated at 4,000 cells/well in 384-well plates with medium containing 1% fetal bovine serum and incubated overnight at 37° C. and 5% CO2. Following incubation, 20 μl of BrightGlo luminescence reagent (Promega) was added to each well of the 384-well assay plates. The plates were placed on an orbital shaker for 2 min and then luminescence was quantified using the Envision (Perkin Elmer) plate reader. Readings were normalized to DMSO only treated cells, and normalized activities were utilized for EC50 calculations using the dose-response log (inhibitor) vs. response -variable slope (four parameters) nonlinear regression feature available in GraphPad Prism 5.0 (or Dotmatics). For EC50 of >10 μM, the percent inhibition at 10 μM is provided.
In general terms: A reporter such as luciferase makes a cellular process visible.

In experiment [2] the test system is primary human fibroblasts derived from IPF patients (LL29 cells). Put plainly: Inhibition of the fibrotic process: αSMA staining in TGF-β1 treated fibroblasts. It counts as cell-based. The conditions noted are these: Fibroblast; for EC50: 96 h, LL29 cells, TGF-β1 20 ng/mL, 4 days, % αSMA positive cells; for inhibition at 10 µM: given where EC50 >10 μM, LL29, αSMA, read-out: percent inhibition at 10 μM. The source says: Representative compounds were screened using primary human fibroblasts (derived from IPF patients) treated with TGF-β1 to determine their ability to inhibit the fibrotic process.
Human Fibroblast Cell Culture: Primary human fibroblasts derived from IPF patients (LL29 cells) [^1Xiaoqiu Liu, et. al., “Fibrotic Lung Fibroblasts Show Blunted Inhibition by cAMP Due to Deficient cAMP Response Element-Binding Protein Phosphorylation”, Journal of Pharmacology and Experimental Therapeutics (2005), 315(2), 678-687; ^2Watts, K. L., et. al., “RhoA signaling modulates cyclin D1 expression in human lung fibroblasts; implications for idiopathic pulmonary fibrosis”, Respiratory Research (2006), 7(1), 88] were obtained from American Type Culture Collection (ATCC) and expanded in F12 medium supplemented with 15% Fetal Bovine Serum and Penicillin/Streptomycin.
Compound Screening: Each compound was dissolved in DMSO as a 10 mM stock and used to prepare compound source plates. Serial dilution (1:2, 11-point dose-response curves from 10 μM to […]) and compound transfer was performed using the ECHO 550 (Labcyte, Sunnyvale, Calif.) into 384-well clear bottom assay plates (Greiner Bio-One) with appropriate DMSO backfill for a final DMSO concentration of 0.1%. LL29 cells are plated at 1,500 cells/well in 80 μL/well F12 medium supplemented with 1% Fetal Bovine Serum. One hour after addition of the cells, TGF-β1 (Peprotech; 20 ng/mL) was added to the plates to induce fibrosis (ref. 1 and 2 above). Wells treated with TGF-β1 and containing DMSO were used as controls. Cells were incubated at 37° C. and 5% CO2 for 4 days. Following incubation for 4 days, SYTOX green nucleic acid stain (Life Technologies [Thermo Fisher Scientific]) was added to the wells at a final concentration of 1 μM and incubated at room temperature for 30 min. Cells were then fixed using 4% formaldehyde (Electron Microscopy Sciences), washed 3 times with PBS followed by blocking and permeabilization using 3% Bovine Serum Albumin (BSA; Sigma) and 0.3% Triton X-100 (Sigma) in PBS. Cells were then stained with antibody specific to α-smooth muscle actin (αSMA; Abcam) (ref. 1 and 2 above) in 3% Bovine Serum Albumin (BSA; Sigma) and 0.3% Triton X-100 (Sigma) in PBS, and incubated overnight at 4° C. Cells were then washed 3 times with PBS, followed by incubation with Alexa Flor-647 conjugated secondary antibody (Life Technologies [Thermo Fisher Scientific]) and DAPI at room temperature for 1 hour. Cells were then washed 3 times with PBS and plates were sealed for imaging. αSMA staining was imaged by excitation at 630 nm and emission at 665 nm and quantified using the Compartmental Analysis program on the CellInsight CX5 (Thermo Scientific). Dead or apoptotic cells were excluded from analysis based on positive SYTOX green staining. % of total cells positive for αSMA were counted in each well and normalized to the average of 11 wells treated with TGF-β1 on the same plate using Dotmatics' Studies Software. The normalized averages (fold change over untreated) of 3 replicate wells for each compound concentration were used to create dose-responses curves and EC50 values were calculated using non-linear regression curve fit in the Dotmatics' Studies Software. For EC50 of >10 μM, the percent inhibition at 10 μM is provided.

Turning to `Fc1cccc(-c2ccnc3[nH]c(-c4n[nH]c5ccc(-c6cccnc6)nc45)cc23)c1` [Compound 4, 3-(4-(3-Fluorophenyl)-1H-pyrrolo[2,3-b]pyridin-2-yl)-5-(pyridin-3-yl)-1H-pyrazolo[4,3-b]pyridine], the half-maximal effective concentration (EC50) is above 10 µM in experiment [1] and 0.144 µM in experiment [2]. For the same compound, in experiment [1], the inhibition at 10 µM came to 47.3%.

For the compound `CC(C)(C)C(=O)Nc1cncc(-c2ccc3[nH]nc(-c4cc5c(-c6cccc(F)c6)ccnc5[nH]4)c3n2)c1` [Compound 8, N-(5-(3-(4-(3-Fluorophenyl)-1H-pyrrolo[2,3-b]pyridin-2-yl)-1H-pyrazolo [4,3-b]pyridin-5-yl)pyridin-3-yl)pivalamide], in experiment [1], the EC50 is above 10 µM and the inhibition at 10 µM came out at 14.3%. In experiment [2], a half-maximal effect (EC50) was put at 1.1 µM.

Consider `Fc1cccc(-c2ccnc3[nH]c(-c4n[nH]c5ccc(-c6cncc(CN7CCCCC7)c6)nc45)cc23)c1` [Compound 15, 3-(4-(3-Fluorophenyl)-1H-pyrrolo[2,3-b]pyridin-2-yl)-5-(5-(piperidin-1-ylmethyl)pyridin-3-yl)-1H-pyrazolo[4,3-b]pyridine], for which the EC50 in experiment [1] and in experiment [2] was above 10 µM throughout. Further, the figures for the inhibition at 10 µM in experiment [1] and in experiment [2] were 8% and 10.3%, respectively.

Consider `Cc1ccncc1-c1ccc2[nH]nc(-c3cc4c(-c5ccc(F)cc5)ccnc4[nH]3)c2n1` [Compound 33, 3-(4-(4-Fluorophenyl)-1H-pyrrolo[2,3-b]pyridin-2-yl)-5-(4-methylpyridin-3-yl)-1H-pyrazolo[4,3-b]pyridine], for which the concentration giving a half-maximal response (EC50) in experiment [1] and in experiment [2] was above 10 µM each time. Also, the inhibition at 10 µM in experiment [1] turned out to be 16.2%; in experiment [2] it was 2.9%.

In the case of `O=C(Nc1cncc(-c2ccc3[nH]nc(-c4cc5c(-c6ccc(F)cc6)ccnc5[nH]4)c3n2)c1)c1ccccc1` [Compound 39, N-(5-(3-(4-(4-Fluorophenyl)-1H-pyrrolo[2,3-b]pyridin-2-yl)-1H-pyrazolo [4,3-b]pyridin-5-yl)pyridin-3-yl)benzamide], in experiment [1], the EC50 was above 10 µM and the inhibition at 10 µM was found to be 0%. In addition, in experiment [2], the EC50 worked out at 7.79 µM.

Take `Fc1ccc(-c2ccnc3[nH]c(-c4n[nH]c5ccc(-c6cncc(CN7CCC(F)(F)C7)c6)nc45)cc23)cc1` [Compound 54, 5-(5-((3,3-Difluoropyrrolidin-1-yl)methyl)pyridin-3-yl)-3-(4-(4-fluorophenyl)-1H-pyrrolo[2,3-b]pyridin-2-yl)-1H-pyrazolo[4,3-b]pyridine]: in experiment [1], the EC50 is above 10 µM and the inhibition at 10 µM stood at 10.2%. In addition, in experiment [2], the EC50 turned out to be 0.374 µM.

As to `Fc1ccc(-c2ccnc3[nH]c(-c4n[nH]c5ccc(-c6cncnc6)nc45)cc23)cc1` [Compound 55, 3-(4-(4-Fluorophenyl)-1H-pyrrolo[2,3-b]pyridin-2-yl)-5-(pyrimidin-5-yl)-1H-pyrazolo[4,3-b]pyridine], the EC50 in experiment [1] and in experiment [2] was above 10 µM throughout. The inhibition at 10 µM in experiment [1] came out at 32%; in experiment [2], 0%.

For the compound `CC(C)CC(=O)Nc1cncc(-c2ccc3[nH]nc(-c4cc5c(-c6ccccc6F)ccnc5[nH]4)c3n2)c1` [Compound 58, N-(5-(3-(4-(2-Fluorophenyl)-1H-pyrrolo[2,3-b]pyridin-2-yl)-1H-pyrazolo [4,3-b]pyridin-5-yl)pyridin-3-yl)-3-methylbutanamide], the results for the concentration giving a half-maximal response (EC50) in experiment [1] and in experiment [2] were 0.517 µM and above 10 µM, respectively. For the same compound, the inhibition at 10 µM in experiment [2] stood at 18.2%.

As for `CN(C)Cc1cncc(-c2ccc3[nH]nc(-c4cc5c(-c6ccccc6F)ccnc5[nH]4)c3n2)c1` [Compound 69, 1-(5-(3-(4-(2-Fluorophenyl)-1H-pyrrolo[2,3-b]pyridin-2-yl)-1H-pyrazolo [4,3-b]pyridin-5-yl)pyridin-3-yl)-N,N-dimethylmethanamine], the EC50 is above 10 µM in experiment [1] and 2 µM in experiment [2]. For the same compound, the inhibition at 10 µM in experiment [1] came out at 8.3%.

As for `O=C(Nc1cncc(-c2ccc3[nH]nc(-c4cc5c(-c6ccccc6F)ccnc5[nH]4)c3n2)c1)C1CC1` [Compound 76, N-(5-(3-(4-(2-Fluorophenyl)-1H-pyrrolo[2,3-b]pyridin-2-yl)-1H-pyrazolo [4,3-b]pyridin-5-yl)pyridin-3-yl)cyclopropanecarboxamide], the EC50 in experiment [1] was above 10 µM; in experiment [2], 5.26 µM. In addition, the inhibition at 10 µM in experiment [1] was 37.3%.

Take `Fc1ccccc1-c1ccnc2[nH]c(-c3n[nH]c4ccc(-c5cncc(CNCc6ccccc6)c5)nc34)cc12` [Compound 80, N-Benzyl-1-(5-(3-(4-(2-fluorophenyl)-1H-pyrrolo[2,3-b]pyridin-2-yl)-1H-pyrazolo[4,3-b]pyridin-5-yl)pyridin-3-yl)methanamine]: in experiment [1], the EC50 is above 10 µM and the inhibition at 10 µM came to 29%. In experiment [2], the EC50 was 1.19 µM.

In the case of `Fc1ccccc1-c1ccnc2[nH]c(-c3n[nH]c4ccc(-c5ccccn5)nc34)cc12` [Compound 84, 3-(4-(2-Fluorophenyl)-1H-pyrrolo[2,3-b]pyridin-2-yl)-5-(pyridin-2-yl)-1H-pyrazolo[4,3-b]pyridine], in experiment [1], the EC50 was above 10 µM and the inhibition at 10 µM was 3%. In addition, in experiment [2], the EC50 is above 10 µM and the inhibition at 10 µM came to 0%.

Regarding `c1cncc(-c2ccc3[nH]nc(-c4cc5c(-c6cccnc6)ccnc5[nH]4)c3n2)c1` [Compound 88, 5-(Pyridin-3-yl)-3-(4-(pyridin-3-yl)-1H-pyrrolo[2,3-b]pyridin-2-yl)-1H-pyrazolo[4,3-b]pyridine], in experiment [1], the concentration for a half-maximal effect (EC50) is above 10 µM and the inhibition at 10 µM worked out at 10.1%. Further, in experiment [2], the EC50 was above 10 µM and the inhibition at 10 µM turned out to be 25.3%.

For `CN(C)c1cncc(-c2ccc3[nH]nc(-c4cc5c(-c6cccnc6)ccnc5[nH]4)c3n2)c1` [Compound 91, N,N-Dimethyl-5-(3-(4-(pyridin-3-yl)-1H-pyrrolo[2,3-b]pyridin-2-yl)-1H-pyrazolo[4,3-b]pyridin-5-yl)pyridin-3-amine], the EC50 in experiment [1] was above 10 µM; in experiment [2], 2.19 µM. Moreover, the inhibition at 10 µM in experiment [1] was determined as 18.2%.

Regarding `CC(C)Nc1cncc(-c2ccc3[nH]nc(-c4cc5c(-c6cccnc6)ccnc5[nH]4)c3n2)c1` [Compound 96, N-Isopropyl-5-(3-(4-(pyridin-3-yl)-1H-pyrrolo[2,3-b]pyridin-2-yl)-1H-pyrazolo[4,3-b]pyridin-5-yl)pyridin-3-amine], the EC50 in experiment [1] is 0.255 µM; in experiment [2], above 10 µM. Further, in experiment [2], the inhibition at 10 µM was 0%.
